Experimental data reported in US20020107197A1, “Ligands for G protein coupled receptors and methods of using them” (priority 2000, published 2002).

Tests used:
[1] = target: T1, OGR1 (Homo sapiens, UniProt Q15743); assay: SPC binding affinity for OGR1
T1 construct: expressed in transfected cells

[2] = target: T2, endogenous PAF receptor (Homo sapiens, UniProt P25105); assay: Calcium assay of the endogenous PAF receptor in MCF10A cells; type: cell-based; settings: parental MCF10A cells
T2 construct: endogenous in cells; host or cells: MCF10A (parental and GPR4-GFP-transfected)
T2 sequence (P25105 whole entry): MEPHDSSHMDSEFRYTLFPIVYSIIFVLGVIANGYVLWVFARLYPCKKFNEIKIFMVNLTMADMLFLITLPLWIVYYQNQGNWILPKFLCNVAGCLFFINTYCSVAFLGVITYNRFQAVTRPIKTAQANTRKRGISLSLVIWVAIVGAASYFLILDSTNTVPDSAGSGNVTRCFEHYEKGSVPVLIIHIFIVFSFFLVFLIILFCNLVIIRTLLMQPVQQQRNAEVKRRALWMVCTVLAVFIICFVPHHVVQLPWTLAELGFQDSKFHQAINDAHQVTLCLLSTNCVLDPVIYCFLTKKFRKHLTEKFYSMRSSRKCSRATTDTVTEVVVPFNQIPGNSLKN
Procedure: Measurement of [Ca^2+]i, was performed as described previously in Xu et al. (2000) Nat Cell Biol 2, 261-267. Briefly, pGPR4-GFP-transfected MCF10A cells were grown in specialized glass-bottom dishes (Bioptech, Inc., Butler, Pa.) and loaded with fura-2 in HEPES buffered saline. Using a dual-wavelength spectrofluorometer (RFK-6002, Photon Technology Int'l, So. Brunswick, N.J.) coupled to an inverted fluorescence microscope (Olympus, IX-70, Lake Success, N.Y.), GFP-positive cells were identified using an excitation wavelength of 488 nm, a dichroic 505 nm long-pass filter and an emitter filter at bandpass of 535 nm (Chroma Technology, Brattleboro, Vt.). Measurements of [Ca^2+]i were performed on individual GPR4-GFP positive cells at excitation wavelengths of 340 and 380 nm and an emission wavelength of 510 nm. Conversion of the 340/380 ratio value into [Ca^2+]i in nM was estimated by comparing the cellular fluorescence ratio with ratios acquired using fura-2 (free acid) in buffers containing known Ca^2+ concentrations. [Ca^2+]i was then calculated as described by Grynkiewicz et al. (1985) J Biol Chem 260, 3440-3450. All calcium assays were performed in the presence of 1 mM EGTA in the assay buffers. Therefore, intracellular calcium release, not calcium influx, was analyzed.
Therefore, it is unlikely that the increase in calcium induced by LPC was mediated by a PAF receptor.

[3] = target: T3, GPR4 (Homo sapiens, UniProt P46093); assay: Internalization of GPR4-GFP in HEK293 cells (confocal microscopy); type: cell-based; settings: 1 μM lipid, 37° C., GPR4-GFP HEK293 cells
T3 construct: were used to generate full length GPR4, which was digested with EcoRI and Xba I and cloned into the pBs3HA vector; expressed in transfected cells
T3 sequence (P46093 whole entry): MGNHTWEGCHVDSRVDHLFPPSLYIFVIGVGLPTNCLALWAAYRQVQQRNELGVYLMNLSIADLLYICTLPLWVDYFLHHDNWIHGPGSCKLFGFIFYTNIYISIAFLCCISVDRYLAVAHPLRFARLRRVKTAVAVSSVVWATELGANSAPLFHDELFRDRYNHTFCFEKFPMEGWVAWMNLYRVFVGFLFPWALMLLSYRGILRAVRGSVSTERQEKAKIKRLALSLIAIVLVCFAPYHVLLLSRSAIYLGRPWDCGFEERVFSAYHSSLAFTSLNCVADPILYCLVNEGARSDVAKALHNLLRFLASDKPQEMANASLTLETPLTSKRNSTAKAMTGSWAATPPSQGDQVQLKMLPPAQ
Procedure: pGPR4-GFP stably expressing HEK293 cells were cultured in 6 cm tissue culture dishes in RPMI1640 with 10% FBS. After 16-24 h serum starvation, cells were treated with different lipids at 37° C. for 2 h. Cells were washed with cold PBS and fixed with 4% paraformaldehyde in PBS. The subcellular localization of GPR4-GFP protein was visualized under a Leica TV confocal fluorescence microscope with a 63× oil immersion lens (Wetzler, Heidelberg, Germany). The excitation and emission wavelengths were 488 nm and 515-540 nm, respectively.
G protein coupled receptors undergo agonist-dependent desensitization and internalization. When HEK293 cells are transfected with the pEGFP-N1 vector, GFP protein is expressed in the cytosol of the cells. The GPR4-GFP and TDAG8-GFP fusion proteins, on the other hand, was expressed only on the plasma membrane.

[4] = target: T3, GPR4; assay: Cell migration in modified Boyden chamber, GPR4-ires-GFP vs GFP Swiss 3T3 cells; type: cell-based; settings: for increase of cell migration over GFP-Swiss 3T3 cells: 100 nM, lower chamber only; for chemokinetic assay: cell motility vs controls: lipid 100 nM in both upper and lower chambers, GFP or GFP-GPR4 Swiss 3T3 cells
Procedure: Chemotaxis was measured in a modified Boyden chamber assay. Briefly, different lipids were added to the lower chambers. GPR4-ires-GFP- and GFP-Swiss 3T3 cells were serum starved for 4 h, trypsinized, and seeded in the upper chambers of Boyden-transwell plates (Corning Inc., Corning, N.Y.). The chambers were incubated for 6 to 8 h. The number of cells that migrated to the lower face of the membrane was counted in 4 random fields. Data are represented as the average ±SD of three independent experiments. For the chemokinetic assay, the same concentrations of lipids were added to both the upper and lower chambers. For Rho inhibition studies, C3-exoenxyme was transiently transfected into Swiss 3T3 cells and cell migration assays were performed 48 hours later.

[5] = tested on: GPR4; assay: GPR4 expression in Jurkat cells by real-time quantitative RT-PCR; type: cell-based, human; settings: 0.1 and 1 μM LPC, up to 24 hours
Procedure: (§1) Jurkat cells were treated with 0.1 and 1 μM LPC for various times (1, 2, 6, and 24 hours). At each time point, cells were collected and total RNA was extracted. Real-time quantitative PCR was utilized to determine relative amounts of GPR4 (shown in FIG. 1A and TDAG8 (shown in FIG. 1B) expressed under each condition. All PCR reactions were performed in triplicate.
(§2) In one scheme, total RNA is extracted from tissues using the RNeasy Total RNA System (Qiagen, Valencia, Calif.). One to five micrograms of total RNA are reverse transcribed using Superscript II RT (Gibco BRL, Rockville, Md.). Eight nanograms of derived cDNA are used as a template for real-time quantitative SYBR Green I PCR. Specific primers, that have already been established and used under these same conditions, are used for each individual receptor, with GAPDH being amplified in a separate tube as a housekeeping gene. The primers for GPR4 (Genbank accession number U2105 1) are 5′-[…]-3′ [SEQ ID NO. 1] and 5′-TCCAGTTGTCGTGGTGCAG-3′ [SEQ ID NO. 2] […] Amplified product is detected by measurement of SYBR Green I, which is added to the initial reaction mixture. […] The results are expressed as a fold-change in receptor expression levels compared to a baseline sample.
(§3) Jurkat cells were treated with 0.1 and 1 μM LPC for up to 24 hours followed by expression analysis of GPR4 and TDAG8 levels with real-time quantitative RT-PCR.

[6] = tested on: TDAG8; assay: TDAG8 expression in Jurkat cells by real-time quantitative RT-PCR; type: cell-based, human; settings: 0.1 and 1 μM LPC, up to 24 hours
Procedure: as §1, §2, §3

[7] = tested on: cells; settings: cited from earlier work

T1 sequence (Q15743 whole entry, species assumed): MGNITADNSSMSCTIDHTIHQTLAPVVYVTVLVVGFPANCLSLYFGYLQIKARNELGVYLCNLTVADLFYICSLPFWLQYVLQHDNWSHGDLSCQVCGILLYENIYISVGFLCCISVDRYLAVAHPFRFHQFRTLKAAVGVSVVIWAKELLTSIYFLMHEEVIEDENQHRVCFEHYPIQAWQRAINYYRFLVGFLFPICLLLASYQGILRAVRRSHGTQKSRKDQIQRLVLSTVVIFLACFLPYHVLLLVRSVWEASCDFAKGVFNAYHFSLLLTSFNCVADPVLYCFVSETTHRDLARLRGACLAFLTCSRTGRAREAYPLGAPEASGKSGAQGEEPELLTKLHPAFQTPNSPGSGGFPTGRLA

| Compound | Kd [1] [nM] | calcium increase through the endogenous PAF receptor in parental cells [2] | internalization of GPR4 [3] | increase of cell migration over GFP-Swiss 3T3 cells [4] [fold] | chemokinetic assay: cell motility vs controls [4] | regulation of GPR4 expression [5] | regulation of TDAG8 expression [6] | concentration at which cells are lysed [7] [µM] |
| --- | --- | --- | --- | --- | --- | --- | --- | --- |
| CCCCCCCCCCCCC/C=C/[C@@H](O)[C@@H](N)COP(=O)([O-])OCC[N+](C)(C)C [SPC, Sphingosylphosphorylcholine] | 33 | not able to induce an increase in calcium | induced internalization of GPR4 | 2.0 | did not significantly change cell motility |  |  |  |
| CCCCCCCCCCCCCCCC(=O)OC[C@@H](O)COP(=O)([O-])OCC[N+](C)(C)C [16:0-LPC] |  |  | induced internalization of GPR4 | 1.7 | did not significantly change cell motility |  |  |  |
| lysophosphatidylcholine [LPC] |  | not able to induce an increase in calcium |  |  |  | time- and dose-dependent up regulation | time- and dose-dependent up regulation | > 30 |
